Data from patent US9035056B2, “Pyrido[4,3-b]indole and pyrido[3,4-b]indole derivatives and methods of use” (Medivation Technologies, Inc., priority 2011, dated 2015).

Tests used:
[1] = molecular target: T1, rat adrenergic α1A receptor (Rattus norvegicus, UniProt P43140); test: Adrenergic α1A radioligand binding ([3H]Prazosin); conditions: 0.1 μM compound; read-out: Percentage inhibition of ligand binding, Adrenergic α1A
T1 construct: rat adrenergic α1A receptor obtained from Wistar Rat submaxillary glands; from tissue; host or cells: Wistar rat submaxillary glands
T1 sequence (P43140 1-466): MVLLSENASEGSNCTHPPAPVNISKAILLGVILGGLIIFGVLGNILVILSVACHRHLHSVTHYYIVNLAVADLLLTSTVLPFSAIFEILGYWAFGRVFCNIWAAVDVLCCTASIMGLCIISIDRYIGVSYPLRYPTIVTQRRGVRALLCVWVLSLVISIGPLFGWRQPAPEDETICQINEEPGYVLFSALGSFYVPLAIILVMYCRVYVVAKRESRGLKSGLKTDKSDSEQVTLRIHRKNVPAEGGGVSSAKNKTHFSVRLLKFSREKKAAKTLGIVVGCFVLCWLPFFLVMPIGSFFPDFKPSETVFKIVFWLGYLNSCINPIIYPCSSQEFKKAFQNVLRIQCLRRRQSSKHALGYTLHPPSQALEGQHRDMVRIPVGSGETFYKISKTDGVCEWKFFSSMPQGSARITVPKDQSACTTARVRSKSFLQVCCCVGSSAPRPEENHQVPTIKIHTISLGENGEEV
Procedure: To evaluate in radioligand binding assays the activity of compounds of the invention, rat adrenergic α1A receptor obtained from Wistar Rat submaxillary glands (Michel, A. et al, Br. J. Pharmacol. 98:883, 1989) in a modified Tris-HCl buffer (50 mM Tris-HCl buffer, pH 7.4, 0.5 mM EDTA) was used. Compounds of the invention were incubated with 0.25 nM [^3H]Prazosin for 60 min at 25° C. Non-specific binding was estimated in the presence of 10 μM phentolamine. Receptor proteins were filtered and washed, the filters were then counted to determine [^3H]Prazosin specifically bound. Compounds of the invention were screened at 1 μM or lower, using 1% DMSO as vehicle. Biochemical assay results are presented as the percent inhibition of specific binding in Table 3.

[2] = molecular target: T2, human recombinant serotonin (5-Hydroxytryptamine) 5-HT6 receptor (Homo sapiens, UniProt P50406); test: Serotonin 5-HT6 radioligand binding ([3H]LSD); conditions: 0.1 μM compound; read-out: Percentage inhibition of ligand binding, Serotonin 5-HT6
T2 construct: expressed in transfected cells; host or cells: HeLa
Procedure: To evaluate in radioligand binding assays the activity of compounds of the invention, human recombinant serotonin (5-Hydroxytryptamine) 5-HT6 receptor expressed in human HeLa cells (Monsma, F. Jr. et al, Mol. Pharmacol. 43:320, 1993) in a modified Tris-HCl buffer (50 mM Tris-HCl, pH 7.4, 150 mM NaCl, 2 mM Ascorbic Acid, 0.001% BSA) was used. Compounds of the invention were incubated with 1.5 nM [3H]Lysergic acid diethylamide (LSD) for 120 min at 37° C. Non-specific binding was estimated in the presence of 5 μM Serotonin (5-HT). Receptor proteins were filtered and washed, the filters were then counted to determine [3H]LSD specifically bound. Compounds were screened at 1 μM or lower, using 1% DMSO as vehicle. Biochemical assay results are presented as the percent inhibition of specific binding in Table 5.

[3] = molecular target: T3, human recombinant dopamine D2L receptor (Homo sapiens, UniProt P14416); test: Dopamine D2L radioligand binding ([3H]Spiperone); conditions: 1 μM compound; read-out: Percentage inhibition of ligand binding, Dopamine D2L
T3 construct: expressed in transfected cells; host or cells: CHO
Procedure: To evaluate in radioligand binding assays the activity of compounds of the invention, human recombinant dopamine D2L receptor expressed in Chinese hamster ovary (CHO) cells (Grandy, D. et al, Proc. Natl. Acad. Sci. USA. 86:9762, 1989; Hayes, G. et al, Mol. Endocrinol. 6:920, 1992) in a modified Tris-HCl buffer (50 mM Tris-HCl, pH 7.4, 1.4 mM Ascorbic Acid, 0.001% BSA, 150 mM NaCl) was used. Compounds of the invention were incubated with 0.16 nM [^3H]Spiperone for 120 min at 25° C. Non-specific binding was estimated in the presence of 10 μM Haloperidol. Receptor proteins were filtered and washed, the filters were then counted to determine [^3H]Spiperone specifically bound. Compounds were screened at 1 μM or lower, using 1% DMSO as vehicle. Biochemical assay results are presented as the percent inhibition of specific binding in Table 4.

[4] = molecular target: T4, human recombinant adrenergic α2C receptor (Homo sapiens, UniProt P18825); test: Adrenergic α2C radioligand binding ([3H]MK-912); conditions: 0.1 μM compound; read-out: Percentage inhibition of ligand binding, Adrenergic α2C
T4 construct: expressed in transfected cells; host or cells: insect Sf9 cells
T4 sequence (P18825 1-462): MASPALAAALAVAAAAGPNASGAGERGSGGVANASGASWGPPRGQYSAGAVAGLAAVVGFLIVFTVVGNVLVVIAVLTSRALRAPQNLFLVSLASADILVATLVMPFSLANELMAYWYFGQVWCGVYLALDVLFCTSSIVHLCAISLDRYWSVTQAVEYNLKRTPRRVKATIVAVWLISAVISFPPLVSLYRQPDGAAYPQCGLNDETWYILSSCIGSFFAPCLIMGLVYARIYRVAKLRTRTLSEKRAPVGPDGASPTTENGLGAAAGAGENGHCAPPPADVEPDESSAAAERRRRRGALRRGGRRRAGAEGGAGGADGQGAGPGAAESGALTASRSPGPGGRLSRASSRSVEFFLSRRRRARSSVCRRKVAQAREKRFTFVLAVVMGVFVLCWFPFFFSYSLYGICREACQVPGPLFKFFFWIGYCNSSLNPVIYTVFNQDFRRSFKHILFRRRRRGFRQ
Procedure: To evaluate in radioligand binding assays the activity of compounds of the invention, human recombinant adrenergic α2C receptor expressed in insect Sf9 cells (Uhlen, S. et al, J. Pharmacol. Exp. Ther. 271:1558, 1994) in a modified Tris-HCl buffer (50 mM Tris-HCl, pH 7.4, 12.5 mM MgCl2, 2 mM EDTA) was used. Compounds of the invention were incubated with 1 nM [^3H]MK-912 for 60 min at 25° C. Non-specific binding was estimated in the presence of 10 μM WB-4101. Receptor proteins were filtered and washed, the filters were then counted to determine [^3H]MK-912 specifically bound. Compounds were screened at 1 μM or lower, using 1% DMSO as vehicle. Biochemical assay results are presented as the percent inhibition of specific binding in Table 3.

T2 sequence (P50406 whole entry): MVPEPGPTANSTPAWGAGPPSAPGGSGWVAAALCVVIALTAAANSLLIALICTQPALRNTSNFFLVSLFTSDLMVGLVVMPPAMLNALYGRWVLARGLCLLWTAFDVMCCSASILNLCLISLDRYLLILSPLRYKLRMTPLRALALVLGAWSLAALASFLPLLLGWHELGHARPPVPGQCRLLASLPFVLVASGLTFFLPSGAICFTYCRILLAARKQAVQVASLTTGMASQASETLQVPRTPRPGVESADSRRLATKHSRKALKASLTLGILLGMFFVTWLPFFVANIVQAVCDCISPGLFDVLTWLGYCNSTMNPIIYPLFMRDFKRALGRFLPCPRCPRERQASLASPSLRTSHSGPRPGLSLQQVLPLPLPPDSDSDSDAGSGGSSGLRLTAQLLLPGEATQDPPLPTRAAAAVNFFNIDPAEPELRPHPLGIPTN
T3 sequence (P14416 whole entry): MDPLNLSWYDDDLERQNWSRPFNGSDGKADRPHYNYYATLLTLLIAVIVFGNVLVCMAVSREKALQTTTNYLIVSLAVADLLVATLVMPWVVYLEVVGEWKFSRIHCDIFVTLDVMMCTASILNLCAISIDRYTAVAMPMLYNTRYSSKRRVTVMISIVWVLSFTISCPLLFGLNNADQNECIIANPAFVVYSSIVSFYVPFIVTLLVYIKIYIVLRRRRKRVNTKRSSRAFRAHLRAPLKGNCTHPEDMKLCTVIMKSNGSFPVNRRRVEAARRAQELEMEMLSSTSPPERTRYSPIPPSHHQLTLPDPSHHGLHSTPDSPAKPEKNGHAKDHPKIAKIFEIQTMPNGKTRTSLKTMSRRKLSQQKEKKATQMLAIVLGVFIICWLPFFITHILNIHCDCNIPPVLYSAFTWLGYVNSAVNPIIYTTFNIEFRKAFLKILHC

Structure (SMILES)	inhibition at 0.1 µM [1]	inhibition at 0.1 µM [2]	inhibition at 1 µM [3]	inhibition at 0.1 µM [4]
Cc1ccc2c(c1)c1c(n2/C=C2/CCCc3ccccc32)CCN(C)C1 [i-2]	51%	102%	47%	90%
Cc1ccc2c(c1)c1c(n2/C=C2\CCCc3ccccc32)CCN(C)C1 [i-3]	18%	83%	49%	72%
